Here are results for eight compounds from patent publication US11596639B2, “Substituted indole Mcl-1 inhibitors” (Vanderbilt University, priority 2016, dated 2023).

Broadly, the Ki is the dissociation constant of the complex between target and ligand, obtained from inhibition or displacement.

Assay [1] concerns the target Mcl-1 (Homo sapiens (Human), UniProt Q07820). As to the kind of experiment: Fluorescence polarization anisotropy (FPA) competition assay, FITC-Bak or FITC-Bim BH3 peptide. Format: binding. Conditions: read-out: Ki for Inhibition of Mcl-1 by FPA assay. On the technique in general: In fluorescence polarisation assays a small probe gives low polarisation when free and higher when bound to something large.

For assay [2], the system named is H929 human cancer cell lines. As to the kind of experiment: Cellular viability / proliferation (Cell TiterGlo, 72 h). Format: cell-based. Conditions: Homo sapiens, NCI-H929, 72 h, read-out: GI50 on cellular proliferation of H929 human cancer cell lines, H929 cells, 72 h, Cell TiterGlo, 10% FBS. Summed up: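 1,000 cells/well, 10% FBS medium; compound added at 24 h, 2-fold dilutions from 50 μM top, DMSO <1% final. 72 h exposure, CellTiterGlo 30 min RT dark, luminescence read. IC50 by 4-parameter fit.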

Where only a bound is given, the exact number is not on record here.

Mcl-1, sequence (Q07820 172-327): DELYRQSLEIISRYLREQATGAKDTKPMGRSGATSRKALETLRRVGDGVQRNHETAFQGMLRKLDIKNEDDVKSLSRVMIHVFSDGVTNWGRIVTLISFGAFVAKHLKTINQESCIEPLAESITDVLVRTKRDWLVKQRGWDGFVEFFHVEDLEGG

On to `Cc1cc(OCCCc2c3n(c4c(-c5c(C)n[nH]c5C)c(Cl)ccc24)CCCN(c2cc(C(=O)O)c4ccn(C)c4c2)C3=O)cc(C)c1Cl` [Example 58, 6-(8-Chloro-11-(3-(4-chloro-3,5-dimethylphenoxy)propyl)-7-(3,5-dimethyl-1H-pyrazol-4-yl)-1-oxo-4,5-dihydro-1H-[1,4]diazepino[1,2-a]indol-2(3H)-yl)-1-methyl-1H-indole-4-carboxylic acid], for which, in assay [1], the inhibitory constant (Ki) was less than 1 nM. Further, the GI50 in assay [2] worked out at 3000 nM.
On the same counts, the results for `Cc1cc(OCCCc2c3n(c4c(-c5c(C)nn(C)c5C)c(Cl)ccc24)[C@H](C)CN(c2cccc4c(C(=O)O)nn(C)c24)C3=O)cc(C)c1Cl` [Example 59, (R)-7-(7-chloro-10-(3-(4-chloro-3,5-dimethylphenoxy)propyl)-4-methyl-1-oxo-6-(1,3,5-trimethyl-1H-pyrazol-4-yl)-3,4-dihydropyrazino[1,2-a]indol-2(1H)-yl)-1-methyl-1H-indazole-3-carboxylic acid] are less than 1 nM and 280 nM.
On the same counts, the results for `Cc1cc(OCCCc2c3n(c4c(-c5c(C)nn(C)c5C)c(Cl)ccc24)CCCN(c2cc(C(=O)O)cc4c2N(C)CCO4)C3=O)cc(C)c1Cl` [Example 61, 5-[8-chloro-11-[3-(4-chloro-3,5-dimethyl-phenoxy)propyl]-1-oxo-7-(1,3,5-trimethylpyrazol-4-yl)-4,5-dihydro-3H-[1,4]diazepino[1,2-a]indol-2-yl]-4-methyl-2,3-dihydro-1,4-benzoxazine-7-carboxylic acid] are 5.7 nM and 8200 nM.
On the same counts, the results for `COc1cc(C(=O)O)cc(N2CCCn3c(c(CCCOc4cc(C)c(Cl)c(C)c4)c4ccc(Cl)c(-c5c(C)nn(C)c5C)c43)C2=O)c1OCCO` [Example 62, 3-[8-chloro-11-[3-(4-chloro-3,5-dimethyl-phenoxy)propyl]-1-oxo-7-(1,3,5-trimethylpyrazol-4-yl)-4,5-dihydro-3H-[1,4]diazepino[1,2-a]indol-2-yl]-4-(2-hydroxyethoxy)-5-methoxy-benzoic acid] are less than 1 nM and 11000 nM.
On to `Cc1cc(OCCCc2c3n(c4c(-c5c(C)nn(C)c5C)c(Cl)ccc24)[C@H](C)CN(c2cccc4c(C(=O)O)cccc24)C3=O)cc(C)c1Cl` [Example 63, (R)-5-(7-Chloro-10-(3-(4-chloro-3,5-dimethylphenoxy)propyl)-4-methyl-1-oxo-6-(1,3,5-trimethyl-1H-pyrazol-4-yl)-3,4-dihydropyrazino[1,2-a]indol-2(1H)-yl)-1-naphthoic acid], for which the Ki in assay [1] is less than 1 nM. Besides, the GI50 in assay [2] stood at 270 nM.
On the same counts, the results for `Cc1cc(OCCCc2c3n(c4c(-c5c(C)nn(C)c5C)c(Cl)ccc24)CCCN(c2ccc4cnoc4c2)C3=O)cc(C)c1Cl` [Example 64, 2-(1,2-benzoxazol-6-yl)-8-chloro-11-[3-(4-chloro-3,5-dimethyl-phenoxy)propyl]-7-(1,3,5-trimethylpyrazol-4-yl)-4,5-dihydro-3H-[1,4]diazepino[1,2-a]indol-1-one] are 4.8 nM and 5600 nM.
With `COc1cc(C(=O)O)cc(N2CCCn3c(c(CCCOc4cc(C)c(Cl)c(C)c4)c4ccc(Cl)c(-c5c(C)nn(C)c5C)c43)C2=O)c1OCCOc1ccccc1F` [Example 65, 3-[8-Chloro-11-[3-(4-chloro-3,5-dimethyl-phenoxy)propyl]-1-oxo-7-(1,3,5-trimethylpyrazol-4-yl)-4,5-dihydro-3H-[1,4]diazepino[1,2-a]indol-2-yl]-4-[2-(2-fluorophenoxy)ethoxy]-5-methoxy-benzoic acid], in assay [1], the Ki is 3.1 nM. Further, the GI50 in assay [2] stood at 5500 nM.
On the same counts, the results for `COc1cc(C(=O)O)cc(N2CCCn3c(c(CCCOc4cc(C)c(Cl)c(C)c4)c4ccc(Cl)c(-c5c(C)nn(C)c5C)c43)C2=O)c1OCCc1ccccc1` [Example 66, 3-[8-Chloro-11-[3-(4-chloro-3,5-dimethyl-phenoxy)propyl]-1-oxo-7-(1,3,5-trimethylpyrazol-4-yl)-4,5-dihydro-3H-[1,4]diazepino[1,2-a]indol-2-yl]-5-methoxy-4-(2-phenylethoxy)benzoic acid] are 4.3 nM and 6400 nM.
